The target in one assay is c-met (Homo sapiens, UniProt P08581). In words: Activity against c-met (stated). Type of assay: biochemical.
The subject of assay [1] is Akt phosphorylation in LNCaP prostate carcinoma cells. In words: Immunoblot for phospho-Akt (S473). Conditions: 48 hours. Type of assay: cell-based. The protocol:
LNCaP prostate carcinoma cells were treated with MP-470, in combinations with Tarceva® and Gleevec®, for 48 hours. Following incubation, cells were lysed and total protein subjected to immunoblot analysis for total Akt and phospho-Akt (S473).

Another assay concerns LNCaP prostate cells. In words: MTT assay. Format: cell-based. Conditions: Homo sapiens, read-out: IC50 (cell survival reduced to 50% of vehicle-treated controls), FIG. 30. Here is the method:
An MTT assay was performed to determine the number of viable cells in each well for each concentration of compound, and also for a set of vehicle controls (DMSO).
A general note: Tetrazolium dyes change colour on reduction, which living cells bring about.

The next assay has as its target PDGFRa (Homo sapiens, UniProt P16234). In words: Autophosphorylation assay with γ-32P-ATP. Format: biochemical. Conditions: FIG. 28B. Here is the method:
(§1) Enzymes were incubated with the appropriate concentration of inhibitor and radiolabeled γ-^32P-ATP. After 30 minutes, the reaction mixtures were electrophoresed on an acrylamide gel and autophosphorylation, quantitated by the amount of radioactivity incorporated into the enzyme, was assayed.

In assay [2] the target is T1, c-Kit (Homo sapiens, UniProt P10721). In words: Autophosphorylation assay with γ-32P-ATP. Format: biochemical. Conditions: FIG. 28A. The protocol: as §1
Assay [3] deals with T1, c-Kit. Kind of assay: c-kit kinase inhibitory activity (stated in Example 32). Type of assay: biochemical.

2 molecules from patent publication US8552018B2, “Substituted tricyclic compounds as protein kinase inhibitors” (Arizona Board of Regents on behalf of the University of …, priority 2003, dated 2013) can be followed below.

T1 sequence (P10721 26-976): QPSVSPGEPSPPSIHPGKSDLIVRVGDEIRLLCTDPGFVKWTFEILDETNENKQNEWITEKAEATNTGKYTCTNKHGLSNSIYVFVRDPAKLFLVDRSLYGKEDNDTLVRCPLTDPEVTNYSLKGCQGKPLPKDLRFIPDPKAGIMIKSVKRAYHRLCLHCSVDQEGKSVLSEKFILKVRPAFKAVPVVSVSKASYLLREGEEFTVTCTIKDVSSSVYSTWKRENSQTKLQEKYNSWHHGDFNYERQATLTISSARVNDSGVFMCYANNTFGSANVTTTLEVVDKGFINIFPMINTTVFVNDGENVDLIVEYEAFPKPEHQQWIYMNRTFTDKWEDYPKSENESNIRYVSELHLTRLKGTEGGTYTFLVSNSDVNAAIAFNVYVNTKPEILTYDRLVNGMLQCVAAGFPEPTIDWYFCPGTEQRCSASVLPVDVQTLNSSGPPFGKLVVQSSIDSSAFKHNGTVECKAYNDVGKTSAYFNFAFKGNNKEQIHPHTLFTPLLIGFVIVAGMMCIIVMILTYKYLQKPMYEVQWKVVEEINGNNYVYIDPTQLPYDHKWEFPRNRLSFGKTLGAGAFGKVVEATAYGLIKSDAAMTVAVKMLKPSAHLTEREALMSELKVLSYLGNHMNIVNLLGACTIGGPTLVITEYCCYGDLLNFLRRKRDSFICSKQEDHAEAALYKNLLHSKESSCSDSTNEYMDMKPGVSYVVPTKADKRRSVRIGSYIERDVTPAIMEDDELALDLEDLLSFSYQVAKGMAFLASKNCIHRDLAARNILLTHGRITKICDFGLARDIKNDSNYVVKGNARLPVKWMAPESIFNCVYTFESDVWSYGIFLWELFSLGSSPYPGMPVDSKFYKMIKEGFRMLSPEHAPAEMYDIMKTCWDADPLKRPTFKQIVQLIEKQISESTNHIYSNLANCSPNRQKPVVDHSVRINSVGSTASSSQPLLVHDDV
c-met, sequence (P08581 25-1390): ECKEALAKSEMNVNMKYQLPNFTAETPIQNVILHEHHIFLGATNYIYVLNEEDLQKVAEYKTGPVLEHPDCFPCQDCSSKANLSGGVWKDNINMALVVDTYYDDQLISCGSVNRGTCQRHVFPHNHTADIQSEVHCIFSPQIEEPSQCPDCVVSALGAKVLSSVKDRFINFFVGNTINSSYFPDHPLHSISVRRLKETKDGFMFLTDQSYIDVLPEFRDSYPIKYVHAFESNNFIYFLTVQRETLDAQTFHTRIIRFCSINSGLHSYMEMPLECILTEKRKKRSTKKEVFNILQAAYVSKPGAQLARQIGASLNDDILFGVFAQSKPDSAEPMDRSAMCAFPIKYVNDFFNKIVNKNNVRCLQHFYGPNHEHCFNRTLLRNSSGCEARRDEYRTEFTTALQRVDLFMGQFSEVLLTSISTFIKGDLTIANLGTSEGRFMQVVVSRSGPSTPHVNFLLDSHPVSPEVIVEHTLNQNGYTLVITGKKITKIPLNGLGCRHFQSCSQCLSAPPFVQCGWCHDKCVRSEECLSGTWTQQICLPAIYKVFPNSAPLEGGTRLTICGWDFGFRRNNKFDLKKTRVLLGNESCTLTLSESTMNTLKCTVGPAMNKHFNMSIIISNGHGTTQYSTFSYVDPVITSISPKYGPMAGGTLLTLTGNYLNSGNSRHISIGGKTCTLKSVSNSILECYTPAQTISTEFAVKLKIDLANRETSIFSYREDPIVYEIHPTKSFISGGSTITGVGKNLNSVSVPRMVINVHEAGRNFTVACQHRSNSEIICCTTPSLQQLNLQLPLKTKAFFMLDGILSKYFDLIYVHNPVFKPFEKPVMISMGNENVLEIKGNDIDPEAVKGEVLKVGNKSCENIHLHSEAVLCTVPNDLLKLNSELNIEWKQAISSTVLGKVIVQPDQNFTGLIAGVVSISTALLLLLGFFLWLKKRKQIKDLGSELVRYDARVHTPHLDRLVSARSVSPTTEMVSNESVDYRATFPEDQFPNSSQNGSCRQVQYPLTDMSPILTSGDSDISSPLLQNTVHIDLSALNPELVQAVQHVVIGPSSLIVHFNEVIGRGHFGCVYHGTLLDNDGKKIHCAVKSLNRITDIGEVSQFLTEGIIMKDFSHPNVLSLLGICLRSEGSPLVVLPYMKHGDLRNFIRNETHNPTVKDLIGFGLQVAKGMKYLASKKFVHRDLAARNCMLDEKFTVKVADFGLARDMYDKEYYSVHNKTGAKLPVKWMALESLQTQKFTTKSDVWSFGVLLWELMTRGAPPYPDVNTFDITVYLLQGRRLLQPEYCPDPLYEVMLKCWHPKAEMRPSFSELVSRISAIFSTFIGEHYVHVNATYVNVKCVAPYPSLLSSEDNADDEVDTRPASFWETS
PDGFRa, sequence (P16234 24-1089): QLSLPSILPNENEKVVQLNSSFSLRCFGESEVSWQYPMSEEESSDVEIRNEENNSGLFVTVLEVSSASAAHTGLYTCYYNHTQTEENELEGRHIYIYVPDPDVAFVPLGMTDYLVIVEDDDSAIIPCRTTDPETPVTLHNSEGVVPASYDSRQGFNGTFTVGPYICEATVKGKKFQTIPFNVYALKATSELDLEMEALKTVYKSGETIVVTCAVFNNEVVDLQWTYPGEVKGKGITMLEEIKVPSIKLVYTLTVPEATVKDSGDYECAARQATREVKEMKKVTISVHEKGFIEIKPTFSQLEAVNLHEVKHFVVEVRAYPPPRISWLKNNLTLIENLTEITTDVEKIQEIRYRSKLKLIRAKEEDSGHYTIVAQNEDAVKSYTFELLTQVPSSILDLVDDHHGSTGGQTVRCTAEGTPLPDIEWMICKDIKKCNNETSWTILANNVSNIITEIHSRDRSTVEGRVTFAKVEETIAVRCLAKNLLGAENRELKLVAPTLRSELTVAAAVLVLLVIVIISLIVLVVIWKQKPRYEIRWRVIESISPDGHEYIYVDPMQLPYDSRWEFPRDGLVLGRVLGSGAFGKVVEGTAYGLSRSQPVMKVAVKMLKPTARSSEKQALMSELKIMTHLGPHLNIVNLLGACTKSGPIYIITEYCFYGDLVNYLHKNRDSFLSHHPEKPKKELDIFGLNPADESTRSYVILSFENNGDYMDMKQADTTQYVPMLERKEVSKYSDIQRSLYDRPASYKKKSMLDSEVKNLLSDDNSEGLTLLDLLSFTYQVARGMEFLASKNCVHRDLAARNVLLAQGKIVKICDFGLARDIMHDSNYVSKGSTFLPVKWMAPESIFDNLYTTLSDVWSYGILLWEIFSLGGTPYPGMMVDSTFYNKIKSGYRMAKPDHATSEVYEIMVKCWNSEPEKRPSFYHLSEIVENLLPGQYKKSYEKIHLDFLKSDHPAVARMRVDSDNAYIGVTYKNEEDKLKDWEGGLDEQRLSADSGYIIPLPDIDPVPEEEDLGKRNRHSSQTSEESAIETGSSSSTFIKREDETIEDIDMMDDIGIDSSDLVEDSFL

Turning to `S=C(NCc1ccc2c(c1)OCO2)N1CCN(c2ncnc3c2oc2ccccc23)CC1` [HPK56, 4-Benzo[4,5]furo[3,2-d]pyrimidin-4-yl-piperazine-1-carbothioic acid (benzo[1,3]dioxol-5-ylmethyl)-amide], the “activity against c-met (in words)” value at c-met is recorded as “low micromolar”. In addition, in assay [1] (MP-470 and Tarceva® in combination), the “reduction of phosphorylation of Akt” value was “enhanced”. Moreover, in assay [1] (agent alone), the “phosphorylation of Akt” value was “reduced in a dose-dependent manner”. The IC50 in the assay with LNCaP prostate cells is approximately 5 µM. The “inhibition of PDGFRa autophosphorylation (in words)” value at PDGFRa is recorded as “dose-dependent”. Moreover, the “inhibition of c-Kit autophosphorylation (in words)” value on c-Kit [2] is reported as “dose-dependent”.
As to `COc1cc2[nH]c3ncnc(N4CCN(C(=S)Nc5ccc(S(=O)(=O)Nc6ncccn6)cc5)CC4)c3c2cc1OC` [HPK62, 4-(6,7-Dimethoxy-9H-1,3,9-triaza-fluoren-4-yl)-piperazine-1-carbothioic acid [4-(pyrimidin-2-ylsulfamoyl)-phenyl]-amide], the “inhibitory activity against c-kit kinase (in words)” value on c-Kit [3] is on record as “low μM”.

Broadly, the IC50 is the concentration needed to halve the response being measured.
